Each structure is given as a SMILES string. Counter-ions that a name gives are not always drawn.

For one assay, the target named is T1, human V1a receptor (Homo sapiens, UniProt P37288).
T1 construct: expressed in transfected cells; host or cells: HEK293 cells, transiently transfected; membranes prepared
T1 sequence (P37288 whole entry): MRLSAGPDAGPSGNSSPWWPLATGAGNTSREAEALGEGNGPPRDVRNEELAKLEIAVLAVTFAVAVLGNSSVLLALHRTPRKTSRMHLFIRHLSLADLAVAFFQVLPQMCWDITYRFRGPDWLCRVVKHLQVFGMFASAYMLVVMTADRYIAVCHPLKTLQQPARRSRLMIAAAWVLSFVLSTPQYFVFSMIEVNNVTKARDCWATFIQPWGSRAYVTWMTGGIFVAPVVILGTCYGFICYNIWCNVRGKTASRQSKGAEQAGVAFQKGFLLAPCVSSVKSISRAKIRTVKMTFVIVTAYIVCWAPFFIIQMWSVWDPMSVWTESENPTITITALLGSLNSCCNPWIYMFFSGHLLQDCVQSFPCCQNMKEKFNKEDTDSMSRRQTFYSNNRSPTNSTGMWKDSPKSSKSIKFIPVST
The experiment in a line: human V1a receptor binding (3H-Vasopressin SPA, membranes of transfected HEK293 cells).
Details: not given
The procedure:
The human V1a receptor was cloned by RT-PCR from total human liver RNA. The coding sequence was subcloned in an expression vector after sequencing to confirm the identity of the amplified sequence. […] Cell membranes were prepared from HEK293 cells transiently transfected with the expression vector and grown in 20 liter fermenters with the following protocol.
50 g of cells are resuspended in 30 ml freshly prepared ice cold Lysis buffer (50 mM HEPES, 1 mM EDTA, 10 mM MgCl2 adjusted to pH=7.4+ complete cocktail of protease inhibitor (Roche Diagnostics)). Homogenized with Polytron for 1 min and sonicated on ice for 2×2 minutes at 80% intensity (Vibracell sonicator). The preparation is centrifuged 20 min at 500 g at 4° C., the pellet is discarded and the supernatant centrifuged 1 hour at 43,000 g at 4° C. (19'000 rpm). The pellet is resuspended in 12.5 ml Lysis buffer+12.5 ml Sucrose 20% and homogenized using a Polytron for 1-2 min. The protein concentration is determined by the Bradford method, and aliquots are stored at −80° C. until use. For binding studies 60 mg Yttrium silicate SPA beads (Amersham) are mixed with an aliquot of membrane in binding buffer (50 mM Tris, 120 mM NaCl, 5 mM KCl, 2 mM CaCl2, 10 mM MgCl2) for 15 minutes with mixing. 50 ul of bead/membrane mixture is then added to each well of a 96 well plate, followed by 50 ul of 4 nM 3H-Vasopressin (American Radiolabeled Chemicals). For total binding measurement 100 ul of binding buffer are added to the respective wells, for non-specific binding 100 ul of […] cold vasopressin and for compound testing 100 ul of a serial dilution of each compound in 2% DMSO. The plate is incubated 1 h at room temperature, centrifuged 1 min at 1000 g and counted on a Packard Top-Count. Non-specific binding counts are subtracted from each well, and data is normalized to the maximum specific binding set at 100%. To calculate an IC 50 the curve is fitted using a non-linear regression model (XLfit) and the Ki is calculated using the Cheng-Prussoff equation.
The Ki is a dissociation constant, usually derived from enzyme kinetics or from competition with a known ligand. With `CN1CCN(C(=O)Cn2cc(C(=O)N3CCC(c4cccc5c4OCC5)CC3)c3ccc(Cl)cc32)CC1` [Example 71, 2-{6-Chloro-3-[4-(2,3-dihydro-benzofuran-7-yl)-piperidine-1-carbonyl]-indol-1-yl}-1-(4-methyl-piperazin-1-yl)-ethanone], affinity was put at a Ki of 5 nM. Still for that read-out and setting: to `CN1CCC[C@H]1Cn1cc(C(=O)N2CCN(c3ccccc3F)CC2)c2ccc(Cl)cc21` [Example 203, [6-Chloro-1-((S)-1-methyl-pyrrolidin-2-ylmethyl)-1H-indol-3-yl]-[4-(2-fluoro-phenyl)-piperazin-1-yl]-methanone] belongs 2 nM; to `COc1cccc(OC)c1C1CCN(C(=O)c2cn(Cc3cnccn3)c3cc(Cl)ccc23)CC1` [Example 50], 4 nM. Same read-out and setting: with `O=C(c1cn(C[C@H]2CCCN2)c2cc(Cl)ccc12)N1CCN(c2ccccc2F)CC1` [Example 214, (6-Chloro-1-(R)-1-pyrrolidin-2-ylmethyl-1H-indol-3-yl)-[4-(2-fluoro-phenyl)-piperazin-1-yl]-methanone] the figure was 16 nM; with `COc1ccccc1N1CCN(C(=O)c2cn(CC(=O)N3CCN(C)CC3)c3cc(Cl)ccc23)CC1` [Example 153, 2-{6-Chloro-3-[4-(2-methoxy-phenyl)-piperazine-1-carbonyl]-indol-1-yl}-1-(4-methyl-piperazin-1-yl)-ethanone], 23 nM.

Staying with this assay, now noted: displacement of 4 nM 3H-Vasopressin, HEK293 cell membranes, Ki by Cheng-Prussoff from IC50; read-out: Ki.
Turning to `COc1ccccc1C1CCN(C(=O)c2cn(CC(=O)N3CCN(C)CC3)c3cc(Cl)ccc23)CC1` [Example 58, 2-{6-Chloro-3-[4-(2-methoxy-phenyl)-piperidine-1-carbonyl]-indol-1-yl}-1-(4-methyl-piperazin-1-yl)-ethanone], the Ki is 9 nM. With `COc1cccc(OC)c1C1CCN(C(=O)c2cn(Cc3ccnc(C)c3)c3cc(Cl)ccc23)CC1` [Example 63, [6-Chloro-1-(2-methyl-pyridin-4-ylmethyl)-1H-indol-3-yl]-[4-(2,6-dimethoxy-phenyl)-piperidin-1-yl]-methanone], the Ki came to 2 nM. For the compound `COc1cccc(OC)c1C1CCN(C(=O)c2cn(CC(=O)N(C)C)c3cc(Cl)ccc23)CC1` [Example 43, 2-{6-Chloro-3-[4-(2,6-dimethoxy-phenyl)-piperidine-1-carbonyl]-indol-1-yl}-N,N-dimethyl-acetamide], the Ki amounted to 2 nM. The same measure, in the same setting: to `COc1cccc(OC)c1C1CCN(C(=O)c2cn(CC(=O)N3CCN(C)CC3)c3cc(Cl)ccc23)CC1` [Example 55, 2-{6-Chloro-3-[4-(2,6-dimethoxy-phenyl)-piperidine-1-carbonyl]-indol-1-yl}-1-(4-methyl-piperazin-1-yl)-ethanone] belongs 2 nM; to `COc1ccccc1C1CCN(C(=O)c2cn(CC(=O)N(C)C)c3cc(Cl)c(Cl)cc23)CC1` [Example 80, 2-{5,6-Dichloro-3-[4-(2-methoxy-phenyl)-piperidine-1-carbonyl]-indol-1-yl}-N,N-dimethyl-acetamide], 6 nM; to `COc1cccc(OC)c1C1CCN(C(=O)c2cn(Cc3ccncc3)c3cc(Cl)ccc23)CC1` [Example 45, (6-Chloro-1-pyridin-4-ylmethyl-1H-indol-3-yl)-[4-(2,6-dimethoxy-phenyl)-piperidin-1-yl]-methanone], 7 nM. Same read-out and setting: to `COc1cccc(OC)c1C1CCN(C(=O)c2cn(CC(=O)OC(C)(C)C)c3cc(Cl)ccc23)CC1` [Example 49, {6-Chloro-3-[4-(2,6-dimethoxy-phenyl)-piperidine-1-carbonyl]-indol-1-yl}-acetic acid tert-butyl ester] belongs 3 nM. Still for that read-out and setting: with `CNC(=O)Cn1cc(C(=O)N2CCC(c3ccccc3F)CC2)c2ccc(Cl)cc21` [Example 111, 2-{6-Chloro-3-[4-(2-fluoro-phenyl)-piperidine-1-carbonyl]-indol-1-yl}-N-methyl-acetamide] the figure was 7 nM. Turning to `O=C(Cn1cc(C(=O)N2CCC(c3ccccc3F)CC2)c2ccc(Cl)cc21)N1CCNCC1` [Example 118, 2-{6-Chloro-3-[4-(2-fluoro-phenyl)-piperidine-1-carbonyl]-indol-1-yl}-1-piperazin-1-yl-ethanone hydrochloride], the Ki was 12 nM. The same measure, in the same setting: with `CC(C)Oc1ccccc1C1CCN(C(=O)c2cn(CC(=O)N3CCN(C)CC3)c3cc(Cl)ccc23)CC1` [Example 67, 2-{6-Chloro-3-[4-(2-isopropoxy-phenyl)-piperidine-1-carbonyl]-indol-1-yl}-1-(4-methyl-piperazin-1-yl)-ethanone] the figure was 5 nM; with `C[C@H](N)Cn1cc(C(=O)N2CCN(c3ccccc3F)CC2)c2ccc(Cl)cc21` [Example 198, [1-((S)-2-Amino-propyl)-6-chloro-1H-indol-3-yl]-[4-(2-fluoro-phenyl)-piperazin-1-yl]-methanone], 20 nM. The same measure, in the same setting: to `CN(C)CCn1cc(C(=O)N2CCN(c3ccccc3F)CC2)c2ccc(Cl)cc21` [Example 171, [6-Chloro-1-(2-dimethylamino-ethyl)-1H-indol-3-yl]-[4-(2-fluoro-phenyl)-piperazin-1-yl]-methanone] belongs 7 nM. On the same count and under the same terms, to `CN1CCN(C(=O)Cn2cc(C(=O)N3CCC(c4ccccc4F)CC3)c3ccc(Cl)cc32)CC1` [Example 117, 2-{6-Chloro-3-[4-(2-fluoro-phenyl)-piperidine-1-carbonyl]-indol-1-yl}-1-(4-methyl-piperazin-1-yl)-ethanone] belongs 6 nM; to `CNC(=O)Cn1cc(C(=O)N2CCC(c3c(OC)cccc3OC)CC2)c2ccc(Cl)cc21` [Example 82, 2-{6-Chloro-3-[4-(2,6-dimethoxy-phenyl)-piperidine-1-carbonyl]-indol-1-yl}-N-methyl-acetamide], 2 nM. Regarding `COc1cccc(OC)c1C1CCN(C(=O)c2cn(CC(=O)c3ccccn3)c3cc(Cl)ccc23)CC1` [Example 44, 2-{6-Chloro-3-[4-(2,6-dimethoxy-phenyl)-piperidine-1-carbonyl]-indol-1-yl}-1-pyridin-2-yl-ethanone], the Ki came out at 3 nM. The same measure, in the same setting: to `CC(C)Oc1ccccc1C1CCN(C(=O)c2cn(CC(=O)N(C)C)c3cc(Cl)ccc23)CC1` [Example 66, 2-{6-Chloro-3-[4-(2-isopropoxy-phenyl)-piperidine-1-carbonyl]-indol-1-yl}-N,N-dimethyl-acetamide] belongs 4 nM.

In the case of `COc1cccc(OC)c1C1CCN(C(=O)c2c[nH]c3cc(Cl)ccc23)CC1` [Example 40, (6-Chloro-1H-indol-3-yl)-[4-(2,6-dimethoxy-phenyl)-piperidin-1-yl]-methanone], the Ki turned out to be 8 nM.

In the case of `COc1cccc(OC)c1C1CCN(C(=O)c2cn(CC(=O)N3CCNCC3)c3cc(Cl)ccc23)CC1` [Example 69, 2-{6-Chloro-3-[4-(2,6-dimethoxy-phenyl)-piperidine-1-carbonyl]-indol-1-yl}-1-piperazin-1-yl-ethanone], the Ki came out at 6 nM. As to `O=C(Cn1cc(C(=O)N2CCN(c3ccccc3F)CC2)c2ccc(Cl)cc21)N1CCNCC1` [Example 177, 2-{6-Chloro-3-[4-(2-fluoro-phenyl)-piperazine-1-carbonyl]-indol-1-yl}-1-piperazin-1-yl-ethanone], the Ki turned out to be 8 nM. Same read-out and setting: with `CN(C)C(=O)Cn1cc(C(=O)N2CCN(c3ccccc3F)CC2)c2ccc(Cl)cc21` [Example 174, 2-{6-Chloro-3-[4-(2-fluoro-phenyl)-piperazine-1-carbonyl]-indol-1-yl}-N,N-dimethyl-acetamide] the figure was 3 nM. Still for that read-out and setting: with `COc1ccccc1N1CCN(C(=O)c2cn(CC(=O)N(C)C)c3cc(Cl)ccc23)CC1` [Example 151, 2-{6-Chloro-3-[4-(2-methoxy-phenyl)-piperazine-1-carbonyl]-indol-1-yl}-N,N-dimethyl-acetamide] the figure was 14 nM; with `CNC(=O)Cn1cc(C(=O)N2CCN(c3ncccc3C(F)(F)F)CC2)c2ccc(Cl)cc21` [Example 196, 2-{6-Chloro-3-[4-(3-trifluoromethyl-pyridin-2-yl)-piperazine-1-carbonyl]-indol-1-yl}-N-methyl-acetamide], 26 nM.

Source of the values: patent US7781436B2 (Hoffmann-La Roche Inc., priority 2005, dated 2010).
